In general, MIC refers to the least concentration at which growth counts as inhibited.

The experiment concerns Mtb H37Rv-WT. The experiment in a line: MIC by resazurin microtiter assay (REMA) against Mtb. It is filed as cell-based. As to conditions: Mycobacterium tuberculosis, 144 h, read-out: MIC (μM) H37Rv-WT. A general note: The colour change of resazurin is a common sign of viable cells or microbes.

≈ marks a conversion by molar mass, not a printed value. Read-outs that look alike come from different tables or passages of the source.

Regarding `CC(C)[C@H]1CO[C@]23CCN(C(=O)OCCc4ccc(C(F)(F)F)cc4)C[C@H]2CCC(=O)N13`, the MIC (REMA, 37° C., 6 days) was 1 to 10 µM (≈ 0.454 to 4.54 µg/mL).
The same measure, in the same setting: next, `CC(C)[C@H]1CO[C@]23CCN(C(=O)OCCCc4ccc(C(F)(F)F)cc4)C[C@H]2CCC(=O)N13`: 1 to 10 µM (≈ 0.469 to 4.69 µg/mL); `CC(C)[C@H]1CO[C@]23CCN(Cc4ccc(C(F)(F)F)cc4)C[C@H]2C[C@@H](C)C(=O)N13`: less than 1 µM.
`CC(C)[C@H]1CO[C@]23CCN(S(=O)(=O)CCCc4ccc(C(F)(F)F)cc4)C[C@H]2CCC(=O)N13`: for the setting “REMA, 37° C., 6 days”, the minimal inhibitory concentration (MIC) is less than 1 µM.
Still for that read-out and setting: next, `CC(C)[C@H]1CO[C@]23CCN(Cc4cc5ccccc5n4C)C[C@H]2CCC(=O)N13`: less than 1 µM.
Regarding `CC(C)[C@H]1CO[C@]23CCN(Cc4ccc(OC(F)(F)F)cc4)C[C@H]2CCC(=O)N13`, the MIC (REMA, 37° C., 6 days) was less than 1 µM.
Still for that read-out and setting: the value for `CC(C)[C@H]1CO[C@]23CCN(S(=O)(=O)Cc4ccc(C(F)(F)F)cc4)C[C@H]2CCC(=O)N13` was less than 1 µM; that for `C=C[C@H]1CO[C@]23CCN(Cc4ccc(C(F)(F)F)cc4)C[C@H]2CCC(=O)N13` was greater than 10 µM; that for `CC(C)[C@H]1CO[C@]23CC[C@@H](N(Cc4ccc(C(F)(F)F)cc4)Cc4ccc(C(F)(F)F)cc4)C[C@H]2CCC(=O)N13` was less than 1 µM.
In the case of `CC(C)[C@H]1CO[C@]23CC[C@H](NCc4ccc(C(F)(F)F)cc4)C[C@H]2CCC(=O)N13`, the MIC (REMA, 37° C., 6 days) was less than 1 µM.
As to `CC(C)[C@H]1CO[C@]23CC[C@H](N(Cc4ccc(C(F)(F)F)cc4)Cc4ccc(C(F)(F)F)cc4)C[C@H]2CCC(=O)N13`, the MIC (REMA, 37° C., 6 days) is less than 1 µM.
With `CC(C)[C@H]1CCO[C@]23CCN(Cc4ccc(C(F)(F)F)cc4)C[C@H]2CCC(=O)N13`, under “REMA, 37° C., 6 days”, the MIC was 1 to 10 µM (≈ 0.41 to 4.1 µg/mL).
Regarding `CC(C)[C@H]1CO[C@]23CCN(Cc4ccc(C(F)(F)F)cc4)C[C@H]2C[C@H](C)C(=O)N13` (single isomer, unassigned), where the note is “REMA, 37° C., 6 days”, the minimal inhibitory concentration (MIC) fell in the range of 1 to 10 µM (≈ 0.41 to 4.1 µg/mL).
`CC(C)[C@H]1CO[C@]23CCN(Cc4ccccc4)C[C@H]2CC(=O)N13` [(1R,4S,8R)-10-benzyl-4-isopropyl-2-oxa-5,10-diazatricyclo[6.4.0.01,5]dodecan-6-one]: the MIC (REMA, 37° C., 6 days) was in the range of 1 to 10 µM (≈ 0.314 to 3.14 µg/mL).
On the same count and under the same terms, next, `CC(C)[C@H]1CO[C@]23CCN(Cc4ccc(C(F)(F)F)cc4)C[C@H]2OCC(=O)N13` [(1R,4S,9R)-4-isopropyl-11-[[4-(trifluoromethyl)phenyl]methyl]-2,8-dioxa-5,11-diazatricyclo[7.4.0.01,5]tridecan-6-one]: 1 to 10 µM (≈ 0.398 to 3.98 µg/mL); `CC(C)[C@H]1CO[C@]23CCN(Cc4ccc(C(F)(F)F)cc4)[C@H]2CCC(=O)N13` [(1R,4S,9S)-4-isopropyl-10-[[4-(trifluoromethyl)phenyl]methyl]-2-oxa-5,10-diazatricyclo[7.3.0.01,5]dodecan-6-one]: less than 1 µM; `O=C1CC[C@@H]2CN(Cc3ccccc3)CC[C@@]23N[C@H]2CCCC[C@@H]2N13` [(1S,6R,11S,16S)-4-benzyl-4,10,17-triazatetracyclo[8.7.0.01,6.011,16] heptadecan-9-one]: greater than 10 µM.
The same measure, in the same setting: next, `O=C1CC[C@@H]2CN(Cc3ccc(C(F)(F)F)cc3)CC[C@@]23OC[C@H](C(F)(F)F)N13` [(3R,7aR,11aR)-3-(trifluoromethyl)-9-[[4-(trifluoromethyl)phenyl]methyl]-2,3,6,7,7a,8,10,11-octahydrooxazolo[2,3-j][1,6]naphthyridin-5-one]: greater than 10 µM; `C=CC[C@@H]1C[C@@H]2CN(Cc3ccc(C(F)(F)F)cc3)CC[C@@]23OC[C@H](C(C)C)N3C1=O` [(3S,6R,7aR,11aR)-6-allyl-3-isopropyl-9-[[4-(trifluoromethyl)phenyl]methyl]-2,3,6,7,7a,8,10,11-octahydrooxazolo[2,3-j][1,6]naphthyridin-5-one]: 1 to 10 µM (≈ 0.437 to 4.37 µg/mL); `CC[C@@H]1C[C@@H]2CN(Cc3ccc(C(F)(F)F)cc3)CC[C@@]23OC[C@H](C(C)C)N3C1=O` [(3S,6R,7aR,11aR)-6-ethyl-3-isopropyl-9-[[4-(trifluoromethyl)phenyl]methyl]-2,3,6,7,7a,8,10,11-octahydrooxazolo[2,3-j][1,6]naphthyridin-5-one]: less than 1 µM.
On to `CC(C)C[C@@H]1C[C@@H]2CN(Cc3ccc(C(F)(F)F)cc3)CC[C@@]23OC[C@H](C(C)C)N3C1=O` [(3S,6R,7aR,11aR)-6-isobutyl-3-isopropyl-9-[[4-(trifluoromethyl)phenyl]methyl]-2,3,6,7,7a,8,10,11-octahydrooxazolo[2,3-j][1,6]naphthyridin-5-one], for which the minimum inhibitory concentration (MIC) (REMA, 37° C., 6 days) is greater than 10 µM.
Consider `C=CC[C@H]1C[C@@H]2CN(Cc3ccc(C(F)(F)F)cc3)CC[C@@]23OC[C@H](C(C)C)N3C1=O` [(3S,6S,7aR,11aR)-6-allyl-3-isopropyl-9-[[4-(trifluoromethyl)phenyl]methyl]-2,3,6,7,7a,8,10,11-octahydrooxazolo[2,3-j][1,6]naphthyridin-5-one], for which the MIC (REMA, 37° C., 6 days) is greater than 10 µM.
The same measure, in the same setting: the value for `CC[C@H]1C[C@@H]2CN(Cc3ccc(C(F)(F)F)cc3)CC[C@@]23OC[C@H](C(C)C)N3C1=O` [(3S,6S,7aR,11aR)-6-ethyl-3-isopropyl-9-[[4-(trifluoromethyl)phenyl]methyl]-2,3,6,7,7a,8,10,11-octahydrooxazolo[2,3-j][1,6]naphthyridin-5-one] was greater than 10 µM.
`CC(C)[C@H]1CO[C@]23CCN(Cc4ccncc4)C[C@H]2CCC(=O)N13` [(3S,7aR,11aR)-3-isopropyl-9-(4-pyridylmethyl)-2,3,6,7,7a,8,10,11-octahydrooxazolo[2,3-j][1,6]naphthyridin-5-one]: the MIC is greater than 10 µM.
As for `CC(C)[C@H]1CO[C@]23CCN(Cc4ccc5ncccc5c4)C[C@H]2CCC(=O)N13` [(3S,7aR,11aR)-3-isopropyl-9-(6-quinolylmethyl)-2,3,6,7,7a,8,10,11-octahydrooxazolo[2,3-j][1,6]naphthyridin-5-one], the MIC (REMA, 37° C., 6 days) was 1 to 10 µM (≈ 0.38 to 3.8 µg/mL).
Same read-out and setting: next, `Cc1ccc(CN2CC[C@]34OC[C@H](C(C)C)N3C(=O)CC[C@@H]4C2)cc1` [(3S,7aR,11aR)-3-isopropyl-9-(p-tolylmethyl)-2,3,6,7,7a,8,10,11-octahydrooxazolo[2,3-j][1,6]naphthyridin-5-one]: 1 to 10 µM (≈ 0.342 to 3.42 µg/mL); `CC(C)[C@H]1CO[C@]23CCN(CC4CCCO4)C[C@H]2CCC(=O)N13` (stereo partly drawn) [(3S,7aR,11aR)-3-isopropyl-9-(tetrahydrofuran-2-ylmethyl)-2,3,6,7,7a,8,10,11-octahydrooxazolo[2,3-j][1,6]naphthyridin-5-one]: greater than 10 µM; `CC(C)[C@H]1CO[C@]23CCN(CC4CCCCO4)C[C@H]2CCC(=O)N13` (stereo partly drawn) [(3S,7aR,11aR)-3-isopropyl-9-(tetrahydropyran-2-ylmethyl)-2,3,6,7,7a,8,10,11-octahydrooxazolo[2,3-j][1,6]naphthyridin-5-one]: 1 to 10 µM (≈ 0.336 to 3.36 µg/mL).
For `CC(C)[C@H]1CO[C@]23CCN(CC4CCOCC4)C[C@H]2CCC(=O)N13` [(3S,7aR,11aR)-3-isopropyl-9-(tetrahydropyran-4-ylmethyl)-2,3,6,7,7a,8,10,11-octahydrooxazolo[2,3-j][1,6]naphthyridin-5-one], where the note is “REMA, 37° C., 6 days”, the MIC is greater than 10 µM.
Consider `CC(C)[C@H]1CO[C@]23CCN(C(=O)Cc4ccc(C(F)(F)F)cc4)C[C@H]2CCC(=O)N13` [(3S,7aR,11aR)-3-isopropyl-9-[2-[4-(trifluoromethyl)phenyl]acetyl]-2,3,6,7,7a,8,10,11-octahydrooxazolo[2,3-j][1,6]naphthyridin-5-one], for which the MIC (REMA, 37° C., 6 days) was greater than 10 µM.
